Measured values taken from article PMC11272598, “RG7774 (Vicasinabin), an orally bioavailable cannabinoid receptor 2 (CB2R) agonist, decreases retinal vascular permeability, leukocyte adhesion, and ocular inflammation in animal models” (Frontiers in Pharmacology, 2024).

Assays:
Mouse FAAH = molecular target: T1, Mouse FAAH (Mus musculus, UniProt O08914); assay: Mouse FAAH assay (brain); assay type: biochemical; conditions: RG7774 10 µM; read-out: Mean ± SEM % inhibition of control, Mouse FAAH
T1 construct: Mouse brain was homogenized in 50 mM Tris-HCl (pH 7.4); from tissue; host or cells: mouse brain, 1000 g supernatant
Method: Mouse brain was homogenized in 50 mM Tris-HCl (pH 7.4) using a glass potter, centrifuged at 1000 g for 10 min, and the pellet was discarded. The supernatant (50 µg) was incubated with [^14C]-AEA (10 µM) (ARC, MO, USA) at 37°C for 15 min (Tris-HCl, pH 9.0) and reactions were stopped with a 2:1 (v/v) mixture of chloroform/methanol. [^14C]-ethanolamine release in the aqueous phase was measured as previously reported. Mouse supernatants (50 µg) were preincubated with RG7774 (10 µM) for 15 min and added directly to the incubation medium. Purified human FAAH (1.7 µg; Cayman Chemical Company, MI, USA) was incubated with [^14C]-AEA (10 µM) (ARC, MO, USA) at 37°C for 15 min (pH 9.0), as previously described. […] for 15 min with 8 different concentrations of RG7774 (0.1-500 µM) and added directly to the incubation medium (250 µL). Control experiments was carried out in the presence of the FAAH inhibitor, URB-597 (100 nM).

logD 7.4 = assay type: physicochemical; conditions: octanol/water, pH 7.4
Text: (§1) TABLE 2 Physicochemical and ADMET profile for RG7774.

[1] = Aqueous stability assay (ASTA); assay type: physicochemical; conditions: 37 °C, 2 h
Method: Aqueous solutions of RG7774 were prepared at 5 different pHs (pH 1-10) from DMSO stock solutions, added to incubation plates and shaken for 10 min at 37 °C. Solutions were transferred to a filter plate (Millipore MSGVN2250, pore size 0.22 μm) and filtered into V-bottom plates (ABGene, AB-0800) prior to heat-sealing. The procedure was repeated, increasing the 37 °C incubation time by 2 h. Samples were analyzed by HPLC at 0 and 2 h. A compound was classified as unstable if < 90% of the initial concentration was detected after 2 h.

human CB2R = molecular target: T2, human CB2R (Homo sapiens, UniProt P34972); assay: PathHunter β-arrestin recruitment assay in CHO cells; assay type: cell-based
T2 construct: bgal (beta-galactosidase fragment of the PathHunter system); host or cells: CHO-K1
Method: Assays were carried out using the PathHunter hCB2_bgal CHOK1 β-arrestin recruitment assay kit (DiscoveRx, Fremont, CA, United States) as previously described ([Soethoudt et al., 2017]). A total of 5,000 cells per well were seeded in 384-well plates (PerkinElmer, Waltham, MA, United States) containing 20 μL cell culture medium and incubated for 16–18 h at 37°C in 5% CO2. Cells were stimulated with RG7774 and incubated for 1.5 h at 37°C in 5% CO2. As the RG7774 stock solution was 100% DMSO, the final concentration of DMSO per assay point was diluted to 0.1%. PathHunter Detection mixture was used to determine β-galactosidase enzyme activity according to the manufacturer’s protocol. Detection mixture (12 µL per well) was added, and the plate was incubated for 1 h in the dark at RT. Chemiluminescence (indicated as relative light units) was measured on an EnVision multilabel plate reader (PerkinElmer, Waltham, MA, United States).

hERG = hERG (Homo sapiens, UniProt Q12809); assay: hERG inhibition
Text: as §1

human CB1R = human CB1R (Homo sapiens, UniProt P21554); assay: Competition binding, [^3H]-CP55940, CHO cell membranes; set-up: expressed in transfected cells; host or cells: CHO cells (membranes); conditions: CHO cells
Method: Competition and saturation binding assays were performed using the radiolabeled CB1R/CB2R agonist [^3H]-CP55940 (PerkinElmer, Waltham, MA, United States) in recombinant cell systems, and the newly developed CB2R-selective agonist [^3H]-RO6753361 ([Chicca et al., 2024]) in cells expressing endogenous CB1R/CB2R. Competition assays were conducted by incubating 5, 40, or 40 µg of membrane protein from CHO cells, Jurkat cells or spleen cells, respectively, with 1.5 nM [^3H]-CP55940 or 1.5 nM [^3H]-RO6753361 in the presence or absence of increasing concentrations of ligand (RG7774 or control) for 2 h at 30°C in a final volume of 0.2 mL of assay buffer (50 mmol/L Tris-HCl, 5 mmol/L MgCl2, 2.5 mmol/L EDTA, and 0.5% fatty acid-free BSA [pH 7.4] and 1% DMSO), with gentle shaking. Saturation binding assays were conducted by incubating 1–3 μg, 40 μg, or 30–40 μg of membrane protein from CHO cells, Jurkat cells, or spleen tissue, respectively, with 12 concentrations in the range of 80–0.039 nM [^3H]-CP55940 or [^3H]-RO6753361 for 2 h at 30°C in a final volume of 0.2 mL/well of assay buffer without DMSO. […] IC50 values and Hill slopes were determined with a 4-parameter logistic model using ActivityBase (ID Business Solution, Guilford, United Kingdom) and pKi values were determined using the Cheng-Prusoff equation ([Cheng and Prusoff, 1973]).

T1 sequence (O08914 whole entry): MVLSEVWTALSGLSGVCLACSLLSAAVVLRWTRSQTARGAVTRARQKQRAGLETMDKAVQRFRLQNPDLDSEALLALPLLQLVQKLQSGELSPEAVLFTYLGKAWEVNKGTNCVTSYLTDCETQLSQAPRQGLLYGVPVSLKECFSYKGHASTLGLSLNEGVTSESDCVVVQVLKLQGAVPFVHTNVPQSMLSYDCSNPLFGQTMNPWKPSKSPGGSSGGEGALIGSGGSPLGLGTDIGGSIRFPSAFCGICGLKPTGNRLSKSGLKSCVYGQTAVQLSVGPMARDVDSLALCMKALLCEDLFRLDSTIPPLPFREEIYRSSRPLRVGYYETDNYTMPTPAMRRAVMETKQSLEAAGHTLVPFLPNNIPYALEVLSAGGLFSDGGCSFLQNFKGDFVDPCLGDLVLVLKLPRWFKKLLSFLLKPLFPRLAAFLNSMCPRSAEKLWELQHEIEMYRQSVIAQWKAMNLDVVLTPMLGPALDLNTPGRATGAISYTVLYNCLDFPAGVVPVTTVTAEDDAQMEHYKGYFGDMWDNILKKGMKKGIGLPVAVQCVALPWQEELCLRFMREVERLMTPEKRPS
Sequence of human CB1R (P21554 whole entry): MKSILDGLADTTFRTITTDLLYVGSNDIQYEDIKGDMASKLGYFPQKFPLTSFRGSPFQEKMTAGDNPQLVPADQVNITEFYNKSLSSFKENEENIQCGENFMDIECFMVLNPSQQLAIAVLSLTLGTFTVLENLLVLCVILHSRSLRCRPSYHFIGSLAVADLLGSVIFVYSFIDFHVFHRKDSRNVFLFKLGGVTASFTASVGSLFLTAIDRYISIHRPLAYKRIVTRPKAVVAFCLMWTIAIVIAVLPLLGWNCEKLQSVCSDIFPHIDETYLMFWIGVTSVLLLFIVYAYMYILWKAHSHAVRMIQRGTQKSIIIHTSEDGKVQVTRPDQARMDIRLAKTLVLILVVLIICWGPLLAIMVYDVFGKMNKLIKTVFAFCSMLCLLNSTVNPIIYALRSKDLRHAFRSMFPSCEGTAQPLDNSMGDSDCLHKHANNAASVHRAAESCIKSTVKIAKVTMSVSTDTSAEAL
Sequence of hERG (Q12809 whole entry): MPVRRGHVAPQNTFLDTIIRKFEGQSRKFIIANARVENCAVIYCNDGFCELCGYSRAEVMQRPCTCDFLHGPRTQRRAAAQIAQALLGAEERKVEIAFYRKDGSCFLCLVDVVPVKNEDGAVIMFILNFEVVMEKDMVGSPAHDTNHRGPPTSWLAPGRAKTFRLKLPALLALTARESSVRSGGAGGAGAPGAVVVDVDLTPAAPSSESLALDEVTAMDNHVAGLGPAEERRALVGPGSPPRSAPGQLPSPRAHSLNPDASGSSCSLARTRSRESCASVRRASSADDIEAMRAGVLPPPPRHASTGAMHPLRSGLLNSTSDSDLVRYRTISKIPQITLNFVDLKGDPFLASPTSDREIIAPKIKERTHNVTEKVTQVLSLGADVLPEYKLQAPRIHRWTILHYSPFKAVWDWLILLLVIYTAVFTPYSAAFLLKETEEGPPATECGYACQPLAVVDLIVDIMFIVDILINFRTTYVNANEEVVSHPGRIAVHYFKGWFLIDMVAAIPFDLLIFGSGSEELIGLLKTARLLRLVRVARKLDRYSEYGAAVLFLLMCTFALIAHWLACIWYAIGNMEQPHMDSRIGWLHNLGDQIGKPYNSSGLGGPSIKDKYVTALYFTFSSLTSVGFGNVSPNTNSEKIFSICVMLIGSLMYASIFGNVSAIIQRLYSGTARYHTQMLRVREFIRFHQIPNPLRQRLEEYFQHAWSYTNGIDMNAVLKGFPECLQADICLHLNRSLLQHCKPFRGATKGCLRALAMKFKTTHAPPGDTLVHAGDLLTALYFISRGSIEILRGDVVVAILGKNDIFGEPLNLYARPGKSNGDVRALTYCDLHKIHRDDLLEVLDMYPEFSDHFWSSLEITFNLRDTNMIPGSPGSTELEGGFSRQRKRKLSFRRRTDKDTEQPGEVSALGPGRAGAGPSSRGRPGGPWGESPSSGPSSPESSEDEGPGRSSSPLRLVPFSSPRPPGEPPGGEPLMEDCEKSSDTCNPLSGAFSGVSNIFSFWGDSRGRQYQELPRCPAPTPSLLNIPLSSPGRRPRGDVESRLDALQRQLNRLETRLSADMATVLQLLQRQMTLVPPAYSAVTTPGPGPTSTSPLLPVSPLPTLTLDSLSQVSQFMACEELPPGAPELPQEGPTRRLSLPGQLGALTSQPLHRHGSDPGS
T2 sequence (P34972 whole entry, the tested form may be a part): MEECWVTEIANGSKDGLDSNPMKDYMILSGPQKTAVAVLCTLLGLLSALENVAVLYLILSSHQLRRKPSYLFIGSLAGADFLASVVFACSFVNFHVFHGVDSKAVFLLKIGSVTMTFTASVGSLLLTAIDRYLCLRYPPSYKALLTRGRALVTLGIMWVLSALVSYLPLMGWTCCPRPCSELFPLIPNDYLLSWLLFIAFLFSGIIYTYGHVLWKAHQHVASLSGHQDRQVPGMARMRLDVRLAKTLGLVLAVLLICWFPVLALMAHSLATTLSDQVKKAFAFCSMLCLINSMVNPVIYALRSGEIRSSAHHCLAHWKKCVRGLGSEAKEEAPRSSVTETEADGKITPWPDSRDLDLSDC

With `Cn1nnnc1Cn1nnc2c(N3CC[C@H](O)C3)nc(C(C)(C)C)nc21` [RG7774, (S)-1-(5-tert-butyl-3-[(1-methyl-1H-tetrazol-5-yl)methyl]-3H-[1,2,3]triazolo[4,5-d]pyrimidin-7-yl)pyrrolidin-3-ol] the inhibition at 10 µM (Mouse FAAH) was 6 ± 8.7%, the logD (logD 7.4) was 2.2 and the “Chemical stability in aqueous media at pH 1–10” value [1] was “stable”. For the same molecule, the EC50 (human CB2R) was 0.0997 ± 0.00572 µM, the IC50 (hERG) was over 20 µM and the “binding to recombinant human CB1R” value (human CB1R) was “no binding”.
